Structures can show the parent of a compound that is named as a salt. Where two headings read alike, the source gives them in different places.
Columns and labels:
[1] = target: PTPN11-E76K mutant enzyme (Homo sapiens (Human), UniProt Q06124, E76K); assay: PTPN11 Enzymatic Assay (DiFMUP phosphatase activity); type: biochemical; settings: full length PTPN11-E76K mutant enzyme 250 pM, DiFMUP 50 μM, 30 min preincubation; read-out: PTPN11-E76K Avg IC50
Description: Reaction was initiated by addition of DiFMUP (50 μM) at room temperature in 384-well black plate with a final reaction volume of 20 uL in assay buffer. […] Dose-response curves were analyzed using IC50 regression curve fitting (GeneData Screener). Curves were normalized to a high controls without inhibitor, and low controls without enzyme.

[2] = tested on: Phospho-ERK levels in KYSE-520 cells; assay: pERK AlphaScreen Protocol; type: cell-based; settings: Homo sapiens, KYSE-520, 2 h, read-out: PERK Avg IC50
Description: KYSE-520 cells (10 k cells/well) were grown in 384-well plate in 20 uL of medium (RPMI-1640, without phenol red, containing 10% FBS) at 37° C. with 5% CO2 overnight. DMSO (control) or increasing concentrations of compounds were diluted in medium, added to the 384-well plate (5 uL/well, final DMSO concentration of 1%), and cells were then incubated with compounds for 2 hr. Phospho-ERK levels were measured using phospho-ERK1/2 AlphaScreen SureFire (PerkinElmer, TGRESB10K) following manufacturer's recommendations. Dose-response curves were analyzed using IC50 regression curve fitting (GeneData Screener). Curves were normalized to a high control without inhibitor (DMSO only), and low control (1 μM selumetinib).

[3] = KYSE-520 cells, 2 hr compound incubation, phospho-ERK1/2 AlphaScreen SureFire

Chain of PTPN11-E76K mutant enzyme (Q06124 whole entry E76K): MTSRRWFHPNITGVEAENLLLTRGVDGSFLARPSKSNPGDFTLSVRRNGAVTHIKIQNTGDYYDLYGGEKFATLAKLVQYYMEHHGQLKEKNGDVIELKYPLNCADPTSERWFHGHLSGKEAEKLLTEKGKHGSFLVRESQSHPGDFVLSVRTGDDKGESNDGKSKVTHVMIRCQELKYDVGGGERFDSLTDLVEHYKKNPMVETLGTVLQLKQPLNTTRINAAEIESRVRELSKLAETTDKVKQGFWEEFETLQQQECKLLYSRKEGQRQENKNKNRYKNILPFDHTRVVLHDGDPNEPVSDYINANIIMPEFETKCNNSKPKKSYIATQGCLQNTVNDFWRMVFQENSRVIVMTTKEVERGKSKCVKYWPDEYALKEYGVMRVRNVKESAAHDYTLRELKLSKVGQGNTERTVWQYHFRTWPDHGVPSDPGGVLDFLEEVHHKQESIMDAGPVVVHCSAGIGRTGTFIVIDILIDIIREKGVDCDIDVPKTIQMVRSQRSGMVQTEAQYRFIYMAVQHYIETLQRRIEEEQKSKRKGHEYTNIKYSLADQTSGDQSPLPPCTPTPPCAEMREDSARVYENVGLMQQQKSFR

CC1(CN)CCN(c2cnc3c(-c4ccnc(O)c4Cl)n[nH]c3n2)CC1 [Example 118, 4-(6-(4-(Aminomethyl)-4-methylpiperidin-1-yl)-1H-pyrazolo[3,4-b]pyrazin-3-yl)-3-chloropyridin-2-ol]
IC50 [1]: 1130 nM | IC50 [2, 3]: 8280 nM

N[C@@H]1COCC12CCN(c1cnc3c(-c4ccccc4Cl)n[nH]c3n1)CC2 [Example 39, (S)-8-(3-(2-chloro-phenyl)-1H-pyrazolo[3,4-b]-pyrazin-6-yl)-2-oxa-8-azaspiro[4.5]-decan-4-amine]
IC50 [1]: 158 nM | IC50 [2, 3]: 103 nM

N[C@@H]1CCCC12CCN(c1cnc3c(-c4ccccc4Cl)n[nH]c3n1)CC2 [Example 54, (R)-8-(3-(2-chlorophenyl)-1H-pyrazolo[3,4-b]-pyrazin-6-yl)-8-aza-spiro[4.5]decan-1-amine]
IC50 [1]: 119 nM | IC50 [2, 3]: 64 nM

N[C@@H]1COCC12CCN(c1cnc3c(-c4cccnc4Cl)n[nH]c3n1)CC2 [Example 41, (S)-8-(3-(2-chloro-pyridin-3-yl)-1H-pyrazolo[3,4-b]-pyrazin-6-yl)-2-oxa-8-azaspiro[4.5]-decan-4-amine trifluoroacetate]
IC50 [1]: 966 nM | IC50 [2]: 394 nM

CC1(N)CCN(c2cnc3c(-c4cccnc4Cl)n[nH]c3n2)CC1 [Example 23, 1-(3-(2-chloro-pyridin-3-yl)-1H-pyrazolo[3,4-b]-pyrazin-6-yl)-4-methyl-piperidin-4-amine]
IC50 [1]: 1820 nM | IC50 [2, 3]: 428 nM

CC1(N)CCN(c2cnc3c(-c4ccc(Cl)c(Cl)c4)n[nH]c3n2)CC1 [Example 18, 1-(3-(3,4-dichloro-phenyl)-1H-pyrazolo[3,4-b]-pyrazin-6-yl)-4-methylpiperidin-4-amine]
IC50 [1]: 141 nM | IC50 [2, 3]: 667 nM

CC1(CN)CCN(c2cnc3c(-c4cn[nH]c4C(F)(F)F)n[nH]c3n2)CC1 [Example 103, (4-Methyl-1-(3-(5-(trifluoromethyl)-1H-pyrazol-4-yl)-1H-pyrazolo[3,4-b]-pyrazine-6-yl)piperidin-4-yl)methanamine]
IC50 [1]: 2600 nM | IC50 [2, 3]: 1630 nM

CC1(N)CCN(c2cnc3c(-c4cc(N)ncc4Cl)n[nH]c3n2)CC1 [Example 138, 4-[6-(4-amino-4-methylpiperidin-1-yl)-1H-pyrazolo[3,4-b]pyrazin-3-yl]-5-chloropyridin-2-amine]
IC50 [1]: 587 nM | IC50 [2, 3]: 406 nM

Cc1c(-c2n[nH]c3nc(N4CCC(C)(N)CC4)cnc23)ccnc1N [Example 123, 4-(6-(4-amino-4-methylpiperidin-1-yl)-1H-pyrazolo[3,4-b]pyrazin-3-yl)-3-methylpyridin-2-amine]
IC50 [1]: 670 nM

N[C@@H]1CCCC12CCN(c1cnc3c(-c4cccc(C(F)(F)F)c4)n[nH]c3n1)CC2 [Example 48, (R)-8-(3-(3-(trifluoromethyl)-phenyl)-1H-pyrazolo[3,4-b]pyrazin-6-yl)-8-azaspiro[4.5]decan-1-amine]
IC50 [1]: 1760 nM | IC50 [2, 3]: 586 nM

NC1(CF)CCN(c2cnc3c(-c4cccc(Cl)c4Cl)n[nH]c3n2)CC1 [Example 58, 1-(3-(2,3-dichlo-rophenyl)-1H-pyrazolo[3,4-b]-pyrazin-6-yl)-4-(fluoromethyl)-piperidin-4-amine]
IC50 [1]: 338 nM | IC50 [2, 3]: 109 nM

CC1(N)CCN(c2cnc3c(-c4ccnc(N)c4Cl)n[nH]c3n2)CC1 [Example 106, 4-(6-(4-Amino-4-methylpiperidin-1-yl)-1H-pyrazolo[3,4-b]pyrazine-3-yl)-3-chloropyridin-2-amine]
IC50 [1]: 253 nM | IC50 [2, 3]: 174 nM

NCC1(O)CCN(c2cnc3c(-c4ccnc(N)c4Cl)n[nH]c3n2)CC1 [Example 114, 1-(3-(2-Amino-3-chloropyridin-4-yl)-1H-pyrazolo[3,4-b]pyrazin-6-yl)-4-(aminomethyl)piperidin-4-ol]
IC50 [1]: 779 nM | IC50 [2, 3]: 2490 nM

CC(N)C1(C)CCN(c2cnc3c(-c4ccnc(N)c4Cl)n[nH]c3n2)CC1 (single isomer, unassigned) [Example 113a, 4-(6-(4-(1-Aminoethyl)-4-methylpiperidin-1-yl)-1H-pyrazolo[3,4-b]pyrazin-3-yl)-3-chloropyridin-2-amine]
IC50 [1]: 180 nM | IC50 [2, 3]: 100 nM

NC1(CO)CCN(c2cnc3c(-c4ccnc(O)c4Cl)n[nH]c3n2)CC1 [Example 110, 4-(6-(4-Amino-4-(hydroxymethyl)piperidin-1-yl)-1H-pyrazolo[3,4-b]pyrazin-3-yl)-3-chloropyridin-2-ol]
IC50 [1]: 3680 nM | IC50 [2, 3]: 7850 nM

COc1cc(Cl)cc(-c2n[nH]c3nc(N4CCC(C)(CN)CC4)cnc23)c1 [Example 35, (1-(3-(3-chloro-5-methoxyphenyl)-1H-pyrazolo[3,4-b]-pyrazin-6-yl)-4-methylpiperidin-4-yl) methanamine]
IC50 [1]: 304 nM | IC50 [2, 3]: 704 nM

N[C@@H]1CCCC12CCN(c1cnc3c(-c4cn[nH]c4C(F)(F)F)n[nH]c3n1)CC2 [Example 102, (R)-8-(3-(5-(Trifluoromethyl)-1H-pyrazol-4-yl)-1H-pyrazolo[3,4-b]pyrazin-6-yl)-8-azaspiro[4.5]decan-1-amine]
IC50 [1]: 2150 nM | IC50 [2, 3]: 1180 nM

NC1(CO)CCN(c2cnc3c(-c4ccccc4Cl)n[nH]c3n2)CC1 [Example 61, (4-amino-1-(3-(2-chlorophenyl)-1H-pyrazolo[3,4-b]-pyrazin-6-yl)-piperidin-4-yl)-methanol]
IC50 [1]: 401 nM | IC50 [2, 3]: 221 nM

CC1(CN)CCN(c2cnc3c(-c4cccc(Cl)c4)n[nH]c3n2)CC1 [Example 9, (1-(3-(3-chloro-phenyl)-1H-pyrazolo[3,4-b]-pyrazin-6-yl)-4-methylpiperidin-4-yl)methanamine]
IC50 [1]: 367 nM | IC50 [2, 3]: 482 nM

CC1(N)CCN(c2cnc3c(-c4ccccc4Cl)n[nH]c3n2)CC1 [Example 20, 1-(3-(2-Chlorophenyl)-1H-pyrazolo[3,4-b]pyrazin-6-yl)-4-methylpiperidin-4-amine]
IC50 [1]: 326 nM | IC50 [2, 3]: 158 nM

COc1cc(Cl)cc(-c2n[nH]c3nc(N4CCC5(CCC[C@H]5N)CC4)cnc23)c1 [Example 52, (R)-8-(3-(3-chloro-5-methoxyphenyl)-1H-pyrazolo[3,4-b]pyrazin-6-yl)-8-azaspiro[4.5]decan-1-amine]
IC50 [1]: 313 nM

Cc1c(Cl)cccc1-c1n[nH]c2nc(N3CCC4(CCC[C@H]4N)CC3)cnc12 [Example 51, (R)-8-(3-(3-chloro-2-methylphenyl)-1H-pyrazolo[3,4-b]pyrazin-6-yl)-8-azaspiro[4.5]decan-1-amine]
IC50 [1]: 153 nM

Cc1c(-c2n[nH]c3nc(N4CCC5(CCC[C@H]5N)CC4)cnc23)ccnc1N [Example 122, (R)-8-(3-(2-amino-3-methylpyridin-4-yl)-1H-pyrazolo[3,4-b]pyrazin-6-yl)-8-azaspiro[4.5]decan-1-amine]
IC50 [1]: 205 nM

Nc1nccc(-c2n[nH]c3nc(N4CCC5(CC4)C[C@H](O)C[C@H]5N)cnc23)c1Cl [Example 126, (2S,4R)-4-Amino-8-(3-(2-amino-3-chloropyridin-4-yl)-1H-pyrazolo[3,4-b]pyrazin-6-yl)-8-azaspiro[4.5]decan-2-ol]
IC50 [1]: 75 nM

CC1(N)CCN(c2cnc3c(-c4cccc(Cl)c4F)n[nH]c3n2)CC1 [Example 26, 1-(3-(3-chloro-2-fluorophenyl)-1H-pyrazolo[3,4-b]-pyrazin-6-yl)-4-methylpiperidin-4-amine]
IC50 [1]: 213 nM

Source: patent US10280171B2, “Heterocyclic inhibitors of PTPN11” (priority 2016, dated 2019)
